“And” between values parts separate entries of the source, which are not always exact repeats. Identical values can stand only once. “Also recorded” adds a separate entry of the source.
Key:
Type in all cases: in vivo, human
[1] = Safety assessment / adverse events in CABG patients (Phase 2); details: for Patients with one or more adverse events: placebo 29 of 37
Procedure: In addition to the hemodynamic monitoring described above the following tests were performed at screening, on the first post-operative day and at discharge:
4. Any adverse events were recorded throughout by the investigator, who assessed their severity and the relationship of these adverse experiences to the treatment.
11. Adverse Effects. The incidence, severity and drug-relatedness of any adverse effects were tabulated by treatment group by decreasing incidence of such effects in the high dose group. Statistical analysis was not performed.

[2] = test system: patients undergoing coronary artery bypass graft (CABG) surgery; assay: Incidence of clinical outcomes, Phase 3 CABG trial; details: for Incidence of myocardial infarction (ECG and CK-MB): placebo 4.7%; for Myocardial infarction (ECG and CK-MB), number of patients: placebo 10 of 211; for Cardiac death, number of patients: placebo 3 of 212; for Incidence of congestive heart failure: placebo 3.8%; for Life-threatening dysrhythmia, number of patients: placebo 4 of 212; for Incidence of cerebrovascular accident: placebo 4.2%; for Congestive heart failure, number of patients: placebo 8 of 212; for Cerebrovascular accident, number of patients: placebo 9 of 212; for Combined clinical outcomes, number of patients: placebo 29 of 212; for Incidence of cardiac death / Incidence of life-threatening dysrhythmia / Incidence of combined clinical outcomes: placebo […]
[3] = test system: patients undergoing coronary artery bypass graft (CABG) surgery; assay: Ejection fraction and hemodynamics (Phase 2)
Procedure: (§1) During surgery, anesthesia was maintained by continuous infusion of fentanyl and midazolam. Routine clinical parameters were recorded using standard operating room monitoring equipment. Continuous 2-lead Holter ECG and TEE data were recorded. Standard surgical procedures (e.g., aorta cross-clamping, crystalloid cardioplegia, cardio-pulmonary bypass, hypothermia) were used. Anastomoses were constructed, aorta cross-clamp removed and patients were discontinued from bypass when body temperature was 37° C. The quality of anastomosis was judged by the surgeon. Difficulty in weaning from bypass was judged by need for one or more of the following: pacemaker, return to bypass, balloon pump or vasopressor administration. Hemodynamic measurements, including heart rate, arterial blood pressure, pulmonary capillary wedge pressure and cardiac output, were recorded before sternotomy, 15 and 30 min after bypass and upon chest closure. Radial artery and pulmonary artery pressures, myocardial and whole body temperature, O2 saturation, end-tidal CO2 and arterial blood gases were measured, and ECG recordings were obtained as clinically indicated. Hemodynamic variables (blood pressure, heart rate, pulmonary capillary wedge pressure) were controlled within 20% of baseline using prescribed regimens.
During the post-operative period through the first post-operative day, morphine and midazolam were used for sedation and analgesia. The cardiovascular medications required were recorded. During this period, continuous ECG monitoring (Holter) was performed for up to 48 hours. Hemodynamic measurements (pulmonary artery pressures and cardiac output) were obtained at 2, 4, 8 and 12 hours (in some cases at 24 and 48 hours) and also whenever clinically indicated.
(§2) A twelve-lead ECG was obtained on arrival in the intensive care unit and during post-operative days 1, 2, 3 and at hospital discharge. Creatinine phosphokinase MB band (CK-MB) was obtained every 8 hours for 48 hours and when indicated. Radio-nuclide ventriculography for ejection fraction and wall motion score was done about 14 days post-operation and as close to hospital discharge as possible. Other tests and measurements (e.g., chest x-ray, pulmonary artery wedge pressure (PCWP) were performed when clinically indicated for diagnosis or evaluation of myocardial infarction, or congestive heart failure. Timing and dose of all cardiovascular medications within 48 hours after surgery were recorded. The total dose of all analgesics during the 24-hour post-operative period was recorded. Fluid intake and output (e.g., blood replacement and urine output) were recorded for 48 hours. The type and duration of inotropic support and antiarrhythmic intervention required were recorded through 24 hours after surgery. Two-channel Holter recordings were obtained during 3 periods, the eight hours prior to intubation, from intubation through the end of surgery, and for an additional 24-48 hours after surgery.
9. Election Fraction. Pre-operative and post-operative ejection fractions were measured using different methodologies; therefore, changes could not be analyzed statistically. Group mean injection fractions and pre- and post-CABG are presented and apparent differences between groups were described.
Results for ejection fraction, measured on all patients pre-operatively (by angiography) and at the time of discharge from the intensive care unit (by radionuclide ventriculography) are given in Table 10 below.

[4] = test system: patients undergoing coronary artery bypass graft (CABG) surgery; assay: Myocardial ischemia by continuous Holter ECG and TEE (Phase 2); details: for Mean duration of postbypass ECG ischemic episodes: patients with events, placebo 175 ± 156, p=0.04; for Incidence of prebypass ECG ischemia: placebo 0%; for Incidence of ECG ischemia (postbypass) / Incidence of preoperative (baseline) ECG ischemia: placebo 18%; for Incidence of ECG ischemia (postbypass): p=0.42; for Incidence of prebypass TEE ischemia: placebo 19%; for Incidence of prebypass TEE ischemia / Ischemic minutes per hour monitored, postbypass: p=0.22; for Incidence of postbypass TEE ischemia: placebo 29%, p=0.86; for Ischemic minutes per hour monitored, postbypass: placebo 35 ± 14; for Mean area under the S-T curve (AUC), postbypass ECG ischemia: placebo -258 ± 317, p=0.24; for Incidence of preoperative (baseline) ECG ischemia: before drug; for Mean area under the S-T segment: post-bypass, placebo 35±14
Procedure: as §1, §2
The evaluation of Holter tapes and echo videotapes was performed centrally by two independent blinded observers; if there was disagreement between the two, a third observer was used to "break the tie." The same observers were used throughout the study.
5. Ischemic Events--TEE. Ischemic event data were evaluated during two time periods--pre-bypass and post-bypass, using the following analysis:
a) The number of patients with ischemic events was compared across the groups using Fisher's exact test. This analysis also included pre-post changes and pre- and post-combined.
b) For patients with events, analysis of the mean duration and severity of ischemia was done. Using only the patients with ischemic events reduced the number included in the analysis, but allowed determination of whether the drug is effective in reducing the magnitude of the events, should they occur. […] For severity (an […] variable, 0-4 scale) and number of events, the Kruskal-Wallis nonparametric test was used. The same comparisons were done with the active treatment groups combined.
6. Ischemic Events--ECG. The analysis of ischemic events indicated by ECG was done using the same methods as the echo events. The time periods analyzed were: (a) baseline (Holter start to infusion start), (b) pre-bypass (infusion start to bypass start), (c) post-bypass (sideclamp off to infusion end), and (d) post-treatment (infusion end to Holter end). […]

[5] = high dose 0.1 mg/kg/min, n=203, p<0.05
[6] = high dose 0.1 mg/kg/min, n=207, NS
[7] = high dose 0.1 mg/kg/min, n=207, p<0.05
[8] = high dose (0.1 mg/kg/min), 0.1 mg/kg
[9] = low dose (0.05 mg/kg/min), 0.05 mg/kg

## NC(=O)c1ncn([C@@H]2O[C@H](CO)[C@@H](O)[C@H]2O)c1N [AICA riboside, 5-amino-1-β-D-ribofuranosyl-imidazole-4-carboxamide]
[1]; 0.05 mg/kg/min
  Patients with one or more adverse events: 28/41
[1]; 0.1 mg/kg/min
  Patients with one or more adverse events: 30/35
[1]; 0.38 mg/kg/min, patient A5
  Adverse events in individual patient: no events other than S-T segment elevation on the ECG post-bypass
[1]; drug-treated patients, 0.05 and 0.1 mg/kg/min
  Frequency of adverse events vs placebo: no evidence that any of these events occurred more frequently in drug-treated patients compared with placebo
[1]; first patients, 0.19 or 0.38 mg/kg/min
  Tolerability: well tolerated
[1]; first six patients, 0.19 or 0.38 mg/kg/min
  Serious adverse experiences: no serious adverse experiences
[1]; five drug-treated patients, 0.19 or 0.38 mg/kg/min
  Serum/urinary uric acid and crystalluria: significant hyperuricemia and elevated urinary uric acid levels with crystalluria
[1]; five patients at 0.19 or 0.38 mg/kg/min, patient A14 at 0.05 mg/kg/min
  Urine coloration: same green coloration; also recorded: clear, green coloration
[2]; [5]
  Incidence of myocardial infarction (ECG and CK-MB): 1.5%
  Myocardial infarction (ECG and CK-MB), number of patients: 3 patients
[2]; [6]
  Cardiac death, number of patients: 0 patients
  Incidence of congestive heart failure: 2.9%
  Life-threatening dysrhythmia, number of patients: 3 patients
  Congestive heart failure, number of patients: 6 patients
  Incidence of cardiac death: 0%
  Incidence of life-threatening dysrhythmia: 1.4%
[2]; [7]
  Incidence of cerebrovascular accident: 0.5%
  Cerebrovascular accident, number of patients: 1 patients
  Combined clinical outcomes, number of patients: 11 patients
  Incidence of combined clinical outcomes: 5.3%
[2]; high dose, p<0.05
  Decrease in incidence of MI vs placebo: 68%
  Decrease in incidence of cerebrovascular accident vs placebo: 88%
  Reduction in incidence of combined outcomes vs placebo: 61%
[2]; high dose, placebo 3.3%
  Incidence of all deaths: 0.5%
[2]; high dose, placebo 24.1%
  Incidence of myocardial infarction determined by either ECG or CK-MB: 20.8%
[2]; low dose 0.05 mg/kg/min vs placebo
  Combined outcome efficacy of low dose: no statistically significant efficacy
[2]; low dose 0.05 mg/kg/min, n=205
  Incidence of myocardial infarction (ECG and CK-MB): 4.4%
  Myocardial infarction (ECG and CK-MB), number of patients: 9 patients
[2]; low dose 0.05 mg/kg/min, n=214
  Cardiac death, number of patients: 5 patients
  Incidence of congestive heart failure: 2.8%
  Life-threatening dysrhythmia, number of patients: 9 patients
  Incidence of cerebrovascular accident: 0.9%
  Congestive heart failure, number of patients: 6 patients
  Cerebrovascular accident, number of patients: 2 patients
  Combined clinical outcomes, number of patients: 23 patients
  Incidence of cardiac death: 2.3%
  Incidence of combined clinical outcomes: 10.7%
  Incidence of life-threatening dysrhythmia: 4.2%
[3]; 0.05 mg/kg/min group, pre-bypass (pre-operative, LV angiography), placebo 57.6 ± 2.0, p=0.54
  Ejection fraction: 55.0 ± 2.3%
[3]; 0.05 mg/kg/min, post-bypass (radionuclide ventriculography), placebo 56.5 ± 2.3, p=0.28
  Ejection fraction: 59.0 ± 2.0%
[3]; 0.10 mg/kg/min group, pre-bypass (pre-operative, LV angiography), placebo 57.6 ± 2.0, p=0.54
  Ejection fraction: 58.4 ± 2.4%
[3]; 0.10 mg/kg/min, post-bypass (radionuclide ventriculography), placebo 56.5 ± 2.3, p=0.28
  Ejection fraction: 61.3 ± 1.7%
[3]; CABG surgery
  Effect on heart rate and blood pressure: no effects of treatment with AICA riboside were seen on these parameters
[3]; post-operative, not statistically significant
  Ejection fraction vs placebo: higher mean ejection fractions post-bypass than the placebo group; also recorded: trend towards higher ejection fraction in the high dose AICA riboside group
[4]; [8]
  Mean duration of postbypass ECG ischemic episodes: 36 ± 20 min and 36 min
  Ischemic minutes per hour monitored, postbypass: 27 ± 20 min/h
[4]; high dose (0.1 mg/kg/min)
  Incidence of prebypass ECG ischemia: 3%
  Incidence of ECG ischemia (postbypass): 11%
  Incidence of prebypass TEE ischemia: 6%
  Incidence of postbypass TEE ischemia: 24%
  Mean area under the S-T curve (AUC), postbypass ECG ischemia: -52 ± 28 mm-min
[4]; high dose group (0.1 mg/kg/min)
  Incidence of preoperative (baseline) ECG ischemia: 14%
[4]; high dose
  Mean area under the S-T segment: 27±20
[4]; [9]
  Mean duration of postbypass ECG ischemic episodes: 125 ± 80 min and 125 min
  Ischemic minutes per hour monitored, postbypass: 40 ± 15 min/h
[4]; low dose (0.05 mg/kg/min)
  Incidence of prebypass ECG ischemia: 3%
  Incidence of ECG ischemia (postbypass): 22%
  Incidence of prebypass TEE ischemia: 15%
  Incidence of postbypass TEE ischemia: 27%
  Mean area under the S-T curve (AUC), postbypass ECG ischemia: -172 ± 144 mm-min
[4]; low dose group (0.05 mg/kg/min)
  Incidence of preoperative (baseline) ECG ischemia: 14%
[4]; low dose
  Mean area under the S-T segment: 40±15
[4]; patients undergoing CABG surgery
  Effect on postsurgical myocardial ischemia: limits the extent of postsurgical myocardial ischemia

— patent publication US5817640A (Gensia Pharmaceuticals, priority 1995, dated 1998)
